Measured values taken from the supplement of paper PMC10307832.

Experiments:
Assay in all cases: relative viability (nuclei count vs DMSO), 5 days (fraction); higher = more cells survive
[1] = compound: Cn1cc(-c2cnc3ccc4ccc(CS(=O)(=O)NCc5ccccn5)cc4c(=O)c3c2)cn1 [MK-8033] + Cc1cc(Nc2cc(N3CCN(C)CC3)nc(Sc3ccc(NC(=O)C4CC4)cc3)n2)n[nH]1 [Tozasertib] (partner 0.1 µM)
Outline: (§1)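 After 5 days of treatment, lung cancer cells in 1536-well plates were fixed and stained in a single step (final 0.05% Triton X-100, 1% formaldehyde, 1 ug/ml Hoechst) and their nuclei counted on 4× images. Treatment had been applied by pin tool the day after seeding as one drug alone or as a fixed anchor-drug dose with five library-drug doses (not always all listed) in √10 steps. Relative viability is the nuclei count of treated wells divided by that of vehicle wells, and values are medians of duplicate plates.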

[2] = compound: CCc1c2c(nc3ccc(OC(=O)N4CCC(N5CCCCC5)CC4)cc13)-c1cc3c(c(=O)n1C2)COC(=O)[C@]3(O)CC [Irinotecan] + Nc1nc2[nH]cc(CCc3ccc(C(=O)N[C@@H](CCC(=O)O)C(=O)O)cc3)c2c(=O)[nH]1 [Pemetrexed] (partner 0.2 µM)
Outline: as §1

[3] = compound: Cn1cc(-c2cnc3ccc4ccc(CS(=O)(=O)NCc5ccccn5)cc4c(=O)c3c2)cn1 [MK-8033] + CS(=O)(=O)CCNCc1ccc(-c2ccc3ncnc(Nc4ccc(OCc5cccc(F)c5)c(Cl)c4)c3c2)o1 [Lapatinib] (partner 2 µM)
Outline: as §1

[4] = compound: Cn1cc(-c2cnc3ccc4ccc(CS(=O)(=O)NCc5ccccn5)cc4c(=O)c3c2)cn1 [MK-8033] + CC(C)C[C@H](NC(=O)[C@H](Cc1ccccc1)NC(=O)c1cnccn1)B(O)O [Bortezomib] (partner 0.002 µM)
Outline: as §1

Cell Line	relative viability ([1]; first compound 0.02 µM)	relative viability ([1]; first compound 0.06325 µM)	relative viability ([1]; first compound 0.2 µM)	relative viability ([1]; first compound 0.6325 µM)	relative viability ([1]; first compound 2 µM)	relative viability ([2]; first compound 0.6325 µM)	relative viability ([2]; first compound 2 µM)	relative viability ([2]; first compound 6.325 µM)	relative viability ([2]; first compound 20 µM)	relative viability ([3]; first compound 0.02 µM)	relative viability ([3]; first compound 0.06325 µM)	relative viability ([3]; first compound 0.2 µM)	relative viability ([3]; first compound 0.6325 µM)	relative viability ([3]; first compound 2 µM)	relative viability ([4]; first compound 0.02 µM)	relative viability ([4]; first compound 0.06325 µM)	relative viability ([4]; first compound 0.2 µM)	relative viability ([4]; first compound 0.6325 µM)	relative viability ([4]; first compound 2 µM)
HARA	0.104	0.0979	0.111	0.136	0.112	0.211	0.294	0.182	0.192	0.594	0.632	0.763	0.69	0.828	1.07	1.1	1.13	1.17	1.07
H3255	0.581	0.501	0.554	0.609	0.602	0.529	0.603	0.393	0.37	0.24	0.233	0.232	0.261	0.226	0.846	0.585	0.822	0.825	0.705
EKVX	0.482	0.262	0.466	0.288	0.313	–	0.339	0.246	0.205	0.193	0.195	0.216	0.207	0.255	1	0.995	0.968	0.712	1.03
NCI-H1666	0.588	0.587	0.589	0.648	0.614	0.762	0.766	0.676	0.63	0.708	0.505	0.519	0.656	0.587	0.766	0.722	0.886	0.822	0.806
NCI-H1915	0.435	0.424	0.391	0.439	0.362	0.352	0.349	0.187	0.132	0.935	0.85	0.992	1	0.948	1	0.911	0.975	1.03	0.952
HCC-366	0.114	0.131	0.0893	0.102	0.0504	0.15	0.192	0.0569	0.0611	1.04	0.994	0.972	1.05	1.05	1.07	1	0.96	1.18	1.05
EPLC-272H	0.27	0.214	0.279	0.32	0.152	0.351	0.321	0.292	0.268	0.905	–	0.914	1.05	0.903	0.932	–	0.826	1.09	0.91
RERF-LC-KJ	0.493	0.485	0.457	0.393	0.408	0.321	0.435	0.44	0.211	0.901	0.823	0.854	0.798	0.815	1.08	1.21	1.04	1.19	1.03
NCI-H2126	0.773	0.749	0.772	0.841	0.79	0.414	0.606	0.456	0.383	0.743	0.653	0.744	0.779	0.803	1.17	1.11	1.01	1.06	1.07
NCI-H1355	0.572	0.524	0.513	0.526	0.398	–	0.968	0.656	0.319	0.979	0.865	0.865	0.988	0.909	1.25	1.12	1.14	1.21	1.15
A-427	0.225	0.213	0.209	0.17	0.194	0.884	1	0.396	0.229	1.05	1.1	0.947	1.1	1.08	0.98	1.11	1.02	0.968	0.954
NCI-H3122	0.53	0.374	0.383	0.369	0.323	0.205	0.202	0.139	0.14	1.03	0.98	1.01	1.01	0.993	1.08	1.01	0.982	0.999	0.941
NCI-H1437	0.408	0.424	0.401	0.395	0.372	0.319	0.315	0.312	0.265	0.736	0.773	0.793	0.834	0.749	0.469	0.444	0.512	0.489	0.419
COR-L23	0.198	0.187	0.164	0.164	0.117	0.181	0.178	0.204	0.165	1.17	0.997	0.7	0.941	0.901	0.966	0.797	0.868	0.971	1.02
NCI-H1651	0.746	0.667	0.734	0.524	0.557	0.25	0.638	0.356	0.147	0.842	0.658	0.874	0.892	0.762	0.988	0.868	0.968	0.999	1.02
NCI-H2087	0.241	0.266	0.237	0.246	0.247	0.489	0.197	0.172	0.195	0.991	1.11	1.11	0.859	0.98	0.877	0.77	0.828	0.687	0.829
NCI-H661	0.37	0.328	0.359	0.35	0.345	0.886	0.653	0.41	0.232	0.384	0.417	0.482	0.453	0.438	0.764	0.685	0.647	0.907	0.858
